# Reference: article PMC4339887, “Selective Sirt2 inhibition by ligand-induced rearrangement of the active site” (Nature Communications, 2015)
# Entries after “also recorded” stand apart in the source; their conditions may differ.
# Columns and labels:
# [1] = tested on: acetylation of the microtubule network in HeLa cells; assay: immunofluorescence microscopy of acetylated microtubule network; assay type: cell-based; conditions: 4 h
# Source text: Cells were then stained with an anti-acetyl-α-tubulin antibody (Sigma-Aldrich, T6793) and then probed with a secondary Alexa 546 conjugated anti-mouse-antibody (Invitrogen). Nuclei were counterstained with DAPI (4',6-diamidino-2-phenylindole). Coverslips were mounted with FluoroMount (Sigma-Aldrich) and sealed with DPX Mountant (Sigma-Aldrich). Images of the mounted samples were acquired on a Leica DM500 microscope equipped with a Leica DFC 395 FX camera and HBO 100 W lamp[40]. The microscope was run with the Leica Application Suite 4.4.0 software. Chroma UV filter set (No. C40888) and Leica N2.1 filter set (No. 513832) were used for DAPI and Alexa 546 signal acquisition, respectively, with a HCX FL Fluotar 40x/0.75 (dry) objective. Further details about the equipment and the settings that were used to acquire the images are found in the Supplementary Methods section. Unprocessed images are found in Supplementary Fig. 9. […]
# Immunocytochemistry equipment and settings. The signal of Alexa 546 and DAPI of the same region were acquired with constant illumination parameters as grayscale 8-bit 600 dpi tiff files (1600u 1200 pixels). Alexa 546 was acquired after 639.1 ms with a gamma factor of 0.65 without multiplying. The gain was set to 1. DAPI-stained images were acquired after about 20 ms with the same parameters as the one for Alexa 546 image acquisition. The temperature in the microscope room was kept at RT. Representative regions of each samples were processed with Adobe Photoshop CS2 to generate images in RGB mode by copying the appropriate original greyscale images to the blue (nuclei, DAPI) and the red (acetylated D-tubulin signal, Alexa 546) channel, respectively. As adjustment, a minimal background subtraction was applied on all images during processing in the same manner. The resolution was changed from 600 dpi (source images) to 450 dpi without resampling (Fig. 7 of the main article). LUT (CLUT) of grayscale images of the acetylated D-tubulin signal and of the DAPI signal are shown in Supplementary Fig. 8. […]
# [2] = tested on: BubR1 in HeLa cells; assay: abundance of BubR1, western blot; assay type: cell-based
# Procedure: Cells were washed with PBS, lysed in IPLS (50 mM Tris/HCl, 150 mM NaCl, 0.5 mM EDTA, 0.5% (v/v) NP-40, pH 7.5, supplemented with Complete protease inhibitors (Roche)). Samples were pelleted and resuspended in 1 × SDS–PAGE sample buffer and heated (95 °C, 5 min). Cell samples were separated using SDS–PAGE (10% (w/v) polyacrylamide), transferred to a nitrocellulose membrane (Bio-Rad), blocked with non-fat dry milk (Roth, 5% (w/v), TBS, 0.1% (v/v) Tween 20) and probed with the anti-BubR1 (1:5,000, BD Biosciences, 612502) and anti-tubulin (1:5,000, Sigma-Aldrich, T5168) as a loading control. Uncropped blots are shown in the Supplementary Fig. 8.
# [3] = tested on: HeLa cells; assay: cell cycle analysis, propidium iodide flow cytometry; assay type: cell-based; conditions: treated as for BubR1
# Procedure: reader (BMG Polarstar, Oex 390 nm, Oem 460 nm). The amount of inhibition was determined with respect to the mixture with only DMSO.
# Immunocytochemistry equipment and settings. The signal of Alexa 546 and DAPI of the same region were acquired with constant illumination parameters as grayscale 8-bit 600 dpi tiff files (1600u 1200 pixels). Alexa 546 was acquired after 639.1 ms with a gamma factor of 0.65 without multiplying. The gain was set to 1. DAPI-stained images were acquired after about 20 ms with the same parameters as the one for Alexa 546 image acquisition. The temperature in the microscope room was kept at RT. Representative regions of each samples were processed with Adobe Photoshop CS2 to generate images in RGB mode by copying the appropriate original greyscale images to the blue (nuclei, DAPI) and the red (acetylated D-tubulin signal, Alexa 546) channel, respectively. As adjustment, a minimal background subtraction was applied on all images during processing in the same manner. The resolution was changed from 600 dpi (source images) to 450 dpi without resampling (Fig. 7 of the main article). LUT (CLUT) of grayscale images of the acetylated D-tubulin signal and of the DAPI signal are shown in Supplementary Fig. 8.
# Cell Cycle Analysis. […] Stained cells were subjected to flow cytometric analysis using a FACSCaliber (BD Biosciences) and analyzed by FlowJo software (Tree Star, Inc.).
# [4] = target: T1, human Sirt2 (Homo sapiens, UniProt Q8IXJ6); assay: HPLC-based conversion assay, non-labelled acetyl-lysine α-tubulin peptide; conditions: SirReal2 100 μM, non-labelled acetyl-lysine oligopeptide
# T1 sequence (Q8IXJ6 25-389): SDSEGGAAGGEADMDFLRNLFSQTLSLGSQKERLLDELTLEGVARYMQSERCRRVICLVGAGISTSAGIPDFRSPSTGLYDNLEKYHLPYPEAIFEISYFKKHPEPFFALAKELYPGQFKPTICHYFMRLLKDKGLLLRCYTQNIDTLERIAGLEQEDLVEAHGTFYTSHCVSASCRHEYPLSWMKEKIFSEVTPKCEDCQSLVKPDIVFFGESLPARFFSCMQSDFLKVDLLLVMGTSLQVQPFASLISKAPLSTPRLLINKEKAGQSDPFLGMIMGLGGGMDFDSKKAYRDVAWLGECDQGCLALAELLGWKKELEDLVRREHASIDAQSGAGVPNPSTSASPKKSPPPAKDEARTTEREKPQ
# [5] = target: T2, human Sirt3 (Homo sapiens, UniProt Q9NTG7); assay: as above; conditions: 100 μM, acetyl-lysine substrate
# T2 sequence (Q9NTG7 118-395): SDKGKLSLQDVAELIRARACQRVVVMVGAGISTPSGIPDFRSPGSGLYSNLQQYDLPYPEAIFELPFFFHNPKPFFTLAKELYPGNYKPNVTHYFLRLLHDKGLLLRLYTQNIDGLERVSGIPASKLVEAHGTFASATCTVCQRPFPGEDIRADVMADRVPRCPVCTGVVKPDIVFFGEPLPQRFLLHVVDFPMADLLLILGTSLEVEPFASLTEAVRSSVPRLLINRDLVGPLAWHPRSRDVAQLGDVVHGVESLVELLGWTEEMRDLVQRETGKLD
smiles,measurement,setting,value
Cc1cc(C)nc(SCC(=O)Nc2ncc(Cc3cccc4ccccc34)s2)n1 [SirReal2],acetylation level of the microtubule network,[1]; 20 μM,induces hyperacetylation; also recorded: partial increase; also recorded: hyperacetylation of the microtubule network
same,acetylation level of the microtubule network,[1]; 50 μM,induces hyperacetylation
same,abundance of BubR1,"[2]; 50 μM, in relation to DMSO control",significantly reduced
same,abundance of BubR1,"[2]; various concentrations, 16 h",reduction; also recorded: dose-dependent depletion
same,cell cycle distribution,[3],did not alter
same,activity of Sirt2,[4],substantially reduced
same,effect on activity of Sirt3,[5],very little effect
